Results from patent publication US7563862B2, “Neural regeneration peptides and methods for their use in treatment of brain damage” (Neuren Pharmaceuticals Limited, priority 2001, dated 2009).
Ends that are not written are not given here.

Key:
cerebellar microexplants [1] = conditions: AT2 receptor agonist, 96 hours after start of cultivation (Cote et al., 1999); cited from earlier work
hypoxic-ischemic injury = hypoxic-ischemic injury (HI) in adult rats, histological tissue damage score; format: in vivo, rat; conditions: five days after insult; for neuroprotection: ICV 2 hrs after hypoxia
Method: To test the efficacy of NRPs in vivo studies were carried out in rats that had been exposed to hypoxic-ischemic injury (HI). Adult rats (50 days old, Wistar, 250-300 g, male) were used. The modified Levine model preparation and experimental procedures were used (Rice et al, 1981, Ann. Neurol. 9: 131-141; Guan et al J., 1993, Cereb. Blood Flow Metab.: 13(4): 609-16). These procedures in brief, consist of an HI injury induced by unilateral carotid artery ligation followed by inhalational asphyxia in the animals with an implanted lateral ventricular cannula. A guide cannula was stereotaxically placed on the top of the dura 1.5 mm to the right of the mid-line and 7.5 mm anterior to the interaural zero plane under halothane anaesthesia. The right carotid artery was double ligated two days after the cannulation. After a 1-hour recovery period from anaesthesia, each of the rats was placed in an incubator where the humidity (90±5%) and temperature ([…]) were controlled for another hour, and then each of the rats was exposed to hypoxia (6% oxygen) for 10 min. The animals were kept in the incubator for an additional 2 hours before treatment.
Rats were treated intracerebral ventricularly (icv) with 5 nM (n=12), 50 nM (n=12) or 500 nM of NRP-4 segment PQ (PGRAEAGGQ; SEQ ID NO:43) dissolved in saline, or vehicle (n=10) (normal saline) 2 hours after hypoxic-ischemic insult.
Histological examination was performed on rats 5 days after the hypoxic-ischemic injury. The rats were killed with an overdose of sodium pentobarbital and were perfused transcardially with normal saline followed by 10% formalin. The brains were kept in the same fixative for a minimum of 2 days before being processed using a standard paraffin imbedding procedure.
Coronal sections 8 μm in thickness were cut from the striatum, cerebral cortex and hippocampus and were stained with thionin and acid fuchsin. The severity of tissue damage was scored in the striatum, cortex and the CA1-2, CA3, CA4 and dentate gyrus of the hippocampus. […]

cerebellar microexplants [2] = experiment: cerebellar microexplants, oxidative stress by 0.1 mM hydrogen peroxide; format: cell-based; conditions: 48 hrs
Method: In this series of experiments, we studied whether NRP-4 Segment PQ (“NRP-4 PQ”) was able to protect cerebellar microexplanted cells from oxidative injury. We exposed cells to vehicle, 0.1 mM hydrogen peroxide or different concentrations of NRP-4 PQ in vehicle. […] Although the mechanism for this potentiation of neurite outgrowth is uncertain, it may relieve the stresses associated with creating or maintaining the microexplants themselves.

[3] = test system: embryonic cerebellar microexplants; experiment: neural cell proliferation in embryonic cerebellar microexplants; format: cell-based
From the text: In another set of studies, we determined effects of NRP-5 RG on induction of neural cell proliferation in embryonic cerebellar microexplants as described herein.

mouse neural stem cells = experiment: haptotactic migration assay, mouse neural stem cells; format: cell-based
Method: NRPs were tested for migration-inducing/chemoattractive activity on mouse neural stem cells, EGF-dependent immortalized mouse neural stem cell line MEB5 and wild-type PC-12 cells in a haptotactic migration assay as described below.
Initial NRP Coating. Control wells of Transwell plates (Coming) with 12 μm pore size were coated in 1.5 ml of the BSA/PBS vehicle. Remaining plates were coated using various concentrations of NRPs ranging between 1-100 ng/ml (prepared in PBS containing 10 ug/ml BSA). The plates were then incubated at 37° C. for 1 hr to coat. Wells were then rinsed 2× with 1 ml sterile PBS.
Laminin ([…]) for MEB-5 cells, PDL (50 μg/ml)+Matrigel for mouse primary stem cells and fibronectin (25 ug/ml)+matrigel for PC-12 cells were used as extracellular matrix (ECM) coating for the cells. All ECM compounds were diluted in PBS. 1.5 ml of the ECM per well was incubated for 2 hrs at room temperature. The wells were then rinsed once with Iml serum-free media (e.g. NB/B27) followed by 1 ml PBS wash.
A 5 ug/mL PDL/PLL mixture (in PBS) was used to coat inserts. Subsequently the inserts were rinsed with MilliQ water.
Transferring to Media and Cell Seeding: Appropriate medium (MEB-5 cells: DMEM-high glucose+N2 (growth medium supplement from Invitrogen)+10 ng/biotin+2 mM L-glutamine, primary stem cells: NSA-medium from Euroclone and for PC-12 cells: NB/B27 medium) was transferred into the 12-well plates. […] Plates were fixed at 1-2 days in vitro (DIV).
Fixation: Inserts were discarded and wells fixed in successive dilutions of PFA (0.4, 1.2, 3 and 4%) for 3-5min in each dilution. […] The wells were rinsed and stored in PBS until counting.
A haptotactic migration assay was performed according to the description of Example 10 using rat NRP-9SD (SEQ ID NO:34) (4 nM) and mouse NRP-7SW (SEQ ID NO:24) (0.4 nM) as attractants in a Boyden chamber

cerebellar microexplants [4] = experiment: cerebellar microexplant survival assay, 3-NP/glutamate injury; format: cell-based, rat
Method: Toxicological and drug administration experiments were designed such that 1/100 parts of toxin and neuroprotective drug were administered simultaneously to the freshly prepared cerebellar microexplants derived from P-4 or P8 rats. Glutamate was prepared as a 50 mM stock solution in MilliQ water while 50 mM 3-nitropropionic acid was pH-adjusted (pH 6.8-7.2) in MilliQ water. The concentrations of the oxidative stress inducing toxin, 3-nitropropionic acid (3-NP), and the excitotoxin, glutamate, in the assay were 0.5 mM each. Lyophilized peptides were reconstituted in PBS or 100 μg/ml human transferrin as a 10 μM stock solution. Subsequently, serial dilutions were made. Cerebellar microexplants were cultivated for 48-72 hours at 34° C., 5% CO2 in air and 100% humidity before they were fixed by increasing amounts of paraformaldehyde (0.4%, 1.2%, 3% and 4%—each treatment 2-3 min).
For statistical analysis of survival, four fields (each field having an area of 0.65 mm^2) of each fixed cerebellar culture with the highest cell densities were chosen, and cells displaying neurite outgrowth were counted. Statistical significance was measured by Student's t-test.
Laminated cerebellar cortex was extracted from P3/4, P7/8 rat pups and triturated through gauze having a 125 μm pore size to obtain uniformly sized microexplants. After centrifugation for 3 minutes at 61 g and the pellet was resuspended in StartV medium (Biochrom) and the suspension seeded on poly-D-lysine coated coverslips in 6-well plates and incubated for 3 hrs to allow adherence, before 1 ml StartV per well was added. As described previously, glutamate/3-NP and NRP were also added. The explants are cultivated at 34° C. at 5% CO2 and 100% humidity for 48-72 hrs. BrdU was administered at start of cultivation for proliferation rate measurements and cells are counted per microscopic field after 48-72 hrs.
Cerebellar Microexplants were prepared as described in Example 9 with the addition of SDF-1 as described, in addition to glutamate/3-NP, and NRP.
Cerebellar microexplants were prepared as described in Example 9 with the addition of SDF-1, Wortmannin and PD98059 (both Calbiochem), as described, in addition to glutamate/3-NP, and NRP.

Row | Substance | longest migration distances (cerebellar microexplants [1]) | neuroprotection within all analysed brain regions (hypoxic-ischemic injury; 9 ng/20 μl icv 2 hrs after hypoxia) [%] | neuroprotection (hypoxic-ischemic injury) | neuroprotection (cerebellar microexplants [2]) | concentration of maximal proliferation-inducing activity [3] [pM] | greater chemoattractive effect than control (BSA-containing) medium (mouse neural stem cells) [%] | higher neuroprotection than SEQ ID NO:46 (cerebellar microexplants [4]) [%] | times higher potency than SEQ ID NO:46 (cerebellar microexplants [4])
1 | CGP-42112 | around 550 im | – | – | – | – | – | – | –
2 | PGRAEAGGQ-NH2 [NRP-4 segment PQ, 9-mer of NRP-4] | – | 100 | substantial neuroprotection in all analysed brain regions | even greater than that of control explants receiving no peroxide | – | – | – | –
3 | REGRRDAPGRAGG-NH2 [NRP-5 segment RG, 13-mer fragment of NRP-5] | – | – | substantial neuroprotection in all analysed brain regions | – | 100 | 42.1 | 20 | 10^6 to 10^7 times
